US5496856A, “Aspartame for its application as a therapeutically active substance” (priority 1993, dated 1996)

Experiments:
[1] = system: human plasma proteins; assay: OTA binding to human plasma proteins, condition (i): aspartame in upper (plasma) compartment; assay type: in vitro ADME
Experimental: (§1) A further study was performed in order to determine the effect of aspartame on OTA binding on human plasma proteins in vitro.
(§2) An in-vitro study was performed on plasma samples obtained from healthy human volunteers, from a French blood bank (Centre de transfusion sanguine in Bordeaux), using citrate as anticoagulant. Blood samples were centrifuged at 1800 g for 30 minutes. This pooled human plasma contained 41±3 g of proteins per liter.
(§3) Static diffusion cells (polypropylene, homemade according to the model provided by Nalgene, USA) containing two compartments (upper and lower) separated by a dialysing membrane having a 10 000 D exclusion limit (Sigma Chemical, USA) were used. This membrane allows OTA and aspartame diffusion and not protein diffusion.
(§4) A human plasma sample was placed in the upper compartment and a medium (RPMI 1640, Sigma chemical, USA) in the lower one.
(§5) The plasma binding properties of OTA were evaluated under two different conditions:
(i) The aspartame at a concentration of 10 μg/ml was added in the upper compartment containing human plasma proteins before introducing OTA at three different concentrations (20, 100, and 500 μg/ml) in the lower compartment;
(§6) OTA concentration in the upper compartment was determined by HPLC (Mobile phase: methanol, acetonitrile, acetic acid, sodium acetate 5 mM (300: 300: 400: 14 v/v/v/v); injection volume 50 μl; flow rate 1 ml/min; run time for one cycle: 10 min and fluorescence detection (excitation at 340 nm and emission at 465 nm).
(§7) Before extraction of OTA from the plasma, all the studied samples of plasma, which had already fixed OTA, were dialysed against free OTA RPMI medium for at least 15 minutes, one or several times, until no more OTA was found in the lower compartment.
(§8) The results obtained under condition (i) as defined hereinabove are reported in Table I, whereas the results obtained under condition (ii) are reported in Table II.

[2] = system: DNA; assay: DNA adducts by postlabeling with ATP gamma 32P in organs (genotoxicity); assay type: in vivo, rats; conditions: OTA 289 μg/kg every 48 h, 3 weeks
Experimental: The animals used in this experiment are male rats of the Wistar strain weighing 160±10 g.
The aspartame is administered by gavage, at the same time as the ochratoxin A, every 48 hours for 3 weeks.
The control and treated rats are placed in a metabolic cage for 24 hours for urine sampling and then sacrificed.
The organs of the same animals were used for extraction of the DNA, which was analyzed by the technique of postlabeling with ATP gamma 32P in order to evaluate the genotoxicity by the presence of adducts with DNA bases.

[3] = system: human plasma proteins; assay: OTA binding to human plasma proteins, condition (ii): OTA with or without aspartame in lower compartment; assay type: in vitro ADME
Experimental: as §1, §2, §3, §4, §5
(ii) The upper compartment contained human plasma proteins only and OTA (20, 100 and 500 μg/ml) was added into the lower compartment alone or concommitantly with 10 μg/ml aspartame.
as §6, §7, §8
Under condition (ii) (Table II), the aspartame was put in the same compartment as OTA in the non-plasmatic compartment to mimic the stomach (the ration OTA/aspartame=1.5 to 36).

[4] = system: all animal species; conditions: cited from earlier work; for toxicity: background statement
[5] = cited from earlier work; for efficacy in treatment of ochratoxicosis: doses of the order of several grams per day

Question: With `C[C@@H]1Cc2c(Cl)cc(C(=O)N[C@@H](Cc3ccccc3)C(=O)O)c(O)c2C(=O)O1` [OTA, chlorodihydroisocoumarinylphenylalanine, reference compound] as the compound, how does the “Quantities of OTA bound to plasma proteins, OTA alone (Table I)” value (shortened to “Quantities of OTA bound … (Table I)”) ([1]; OTA 20 μg/ml, 30 min) read?
Answer: 215 ± 11 ng/mL

Question: What about the “Quantities of OTA bound … (Table I)” value ([1]; OTA 20 μg/ml, 60 min) of the same compound?
Answer: 431 ± 18 ng/mL

Question: What about the “Quantities of OTA bound … (Table I)” value ([1]; OTA 20 μg/ml, 120 min) of the same compound?
Answer: 772 ± 25 ng/mL

Question: And the “Quantities of OTA bound … (Table I)” value ([1]; OTA 100 μg/ml, 30 min)?
Answer: 442 ± 21 ng/mL

Question: And the “Quantities of OTA bound … (Table I)” value ([1]; OTA 100 μg/ml, 60 min)?
Answer: 739 ± 17 ng/mL

Question: What about the “Quantities of OTA bound … (Table I)” value ([1]; OTA 100 μg/ml, 120 min) of the same compound?
Answer: 1231 ± 17 ng/mL

Question: What about the “Quantities of OTA bound … (Table I)” value ([1]; OTA 500 μg/ml, 30 min) of the same compound?
Answer: 556 ± 15 ng/mL

Question: And the “Quantities of OTA bound … (Table I)” value ([1]; OTA 500 μg/ml, 60 min)?
Answer: 1175 ± 71 ng/mL

Question: What about the “Quantities of OTA bound … (Table I)” value ([1]; OTA 500 μg/ml, 120 min) of the same compound?
Answer: 1744 ± 112 ng/mL

Question: What about the “DNA adducts in organs (liver, kidney, spleen, etc.), OTA-treated animals” value [2] of the same compound?
Answer: Adducts are detected in large numbers

Question: And the “Quantities of OTA bound to plasma proteins, OTA alone (Table II)” value (shortened to “Quantities of OTA bound … (Table II)”) ([3]; OTA 20 μg/ml, 30 min)?
Answer: 163 ± 42 ng/mL

Question: And the “Quantities of OTA bound … (Table II)” value ([3]; OTA 20 μg/ml, 60 min)?
Answer: 488 ± 41 ng/mL

Question: What about the “Quantities of OTA bound … (Table II)” value ([3]; OTA 20 μg/ml, 120 min) of the same compound?
Answer: 774 ± 43 ng/mL

Question: What about the “Quantities of OTA bound … (Table II)” value ([3]; OTA 100 μg/ml, 30 min) of the same compound?
Answer: 491 ± 39 ng/mL

Question: What about the “Quantities of OTA bound … (Table II)” value ([3]; OTA 100 μg/ml, 60 min) of the same compound?
Answer: 983 ± 48 ng/mL

Question: And the “Quantities of OTA bound … (Table II)” value ([3]; OTA 100 μg/ml, 120 min)?
Answer: 1296 ± 61 ng/mL

Question: And the “Quantities of OTA bound … (Table II)” value ([3]; OTA 500 μg/ml, 30 min)?
Answer: 539 ± 41 ng/mL

Question: And the “Quantities of OTA bound … (Table II)” value ([3]; OTA 500 μg/ml, 60 min)?
Answer: 1347 ± 92 ng/mL

Question: What about the “Quantities of OTA bound … (Table II)” value ([3]; OTA 500 μg/ml, 120 min) of the same compound?
Answer: 1899 ± 89 ng/mL

Question: Which genotoxic effects ([4]; metabolite of OTA, Creppy et al., Arch. Toxicol. 64, 279-284 (1990)) does the source give for `C[C@@H]1Cc2c(Cl)cc(C(=O)N[C@@H](Cc3ccc(O)cc3)C(=O)O)c(O)c2C(=O)O1` [Tyrosine-OTA] here?
Answer: seems to be one of the metabolites responsible for the genotoxic effects

Question: Which toxicity [4] does the source give for `C[C@@H]1Cc2ccc(C(=O)N[C@@H](Cc3ccccc3)C(=O)O)c(O)c2C(=O)O1` [ochratoxin B] here?
Answer: does not seem to be toxic

Question: With `CCOC(=O)[C@H](Cc1ccccc1)NC(=O)c1cc(Cl)c2c(c1O)C(=O)O[C@H](C)C2` [ochratoxin C, ethyl ester of ochratoxin A] as the compound, how does the toxicity [4] read?
Answer: effects comparable to those of ochratoxin A

Question: Which “efficacy in treatment of ochratoxicosis” value [5] does the source give for `O=C(O)O` [sodium bicarbonate] here?
Answer: still poor

Question: Which “action in chronic intoxication” value ([5]; chronic intoxication) does the source give for `N[C@@H](Cc1ccccc1)C(=O)O` [phenylalanine] here?
Answer: very inadequate, if not non-existent

Question: What about the “efficacy in treatment of ochratoxicosis” value [5] of the same compound?
Answer: not totally satisfactory

Question: And the “acute toxic effects of OTA and inhibition of protein synthesis” value ([5]; in vivo and in vitro)?
Answer: makes it possible to prevent the acute toxic effects and the inhibition of protein synthesis
